SMILES strings stand for the structures. pEC50: −log10 of the molar value.

This assay addresses Nociceptin receptor (Mus musculus, UniProt P35377). The experiment in a line: Agonist activity at NOP receptor in Swiss mouse vas deferens assessed as effect on electrically stimulated contractions. In kind it is functional, tissue-based.

Nociceptin receptor, sequence (P35377 whole entry): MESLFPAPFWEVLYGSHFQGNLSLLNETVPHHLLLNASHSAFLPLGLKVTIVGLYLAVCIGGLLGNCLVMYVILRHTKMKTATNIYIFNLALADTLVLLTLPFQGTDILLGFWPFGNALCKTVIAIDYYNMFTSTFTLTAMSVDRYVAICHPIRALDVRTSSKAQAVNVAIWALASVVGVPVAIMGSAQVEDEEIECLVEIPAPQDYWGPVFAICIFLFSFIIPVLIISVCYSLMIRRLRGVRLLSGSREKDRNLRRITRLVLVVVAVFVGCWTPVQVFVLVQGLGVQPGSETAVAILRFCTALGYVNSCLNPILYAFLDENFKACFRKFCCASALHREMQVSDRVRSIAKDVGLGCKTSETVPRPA

On to `CC[C@](C)(NC(=O)CNC(=O)[C@@H](NC(=O)[C@H](Cc1ccccc1)NC(=O)CNC(=O)CNC(=O)[C@@H](N)Cc1ccccc1)[C@@H](C)O)C(=O)N[C@@H](CCCNC(=N)N)C(=O)N[C@@H](CCCCN)C(=O)N[C@@H](CO)C(=O)N[C@@H](C)C(=O)N[C@@H](CCCNC(=N)N)C(=O)N[C@@H](CCCCN)C(=O)N[C@@H](CC(C)C)C(=O)N[C@@H](C)C(=O)N[C@@H](CC(N)=O)C(=O)N[C@@H](CCC(N)=O)C(N)=O` [listing 1 of 2 here], for which the pEC50 (usually −log10 of the EC50, conventionally taken in molar units) was 7.62.
For `CC(C)C[C@H](NC(=O)[C@H](CCCCN)NC(=O)[C@H](CCCNC(=N)N)NC(=O)[C@H](C)NC(=O)[C@H](CO)NC(=O)[C@H](CCCCN)NC(=O)[C@H](CCCNC(=N)N)NC(=O)C(C)(NC(=O)CNC(=O)[C@@H](NC(=O)[C@H](Cc1ccccc1)NC(=O)CNC(=O)CNC(=O)[C@@H](N)Cc1ccccc1)[C@@H](C)O)C(C)C)C(=O)N[C@@H](C)C(=O)N[C@@H](CC(N)=O)C(=O)N[C@@H](CCC(N)=O)C(N)=O` (stereo partly drawn) [listing 1 of 2 here] the value was 7.26; for `CC(C)C[C@H](NC(=O)[C@H](CCCCN)NC(=O)[C@H](CCCNC(=N)N)NC(=O)[C@H](C)NC(=O)[C@H](CO)NC(=O)[C@H](CCCCN)NC(=O)[C@H](CCCNC(=N)N)NC(=O)C(C)(CC(C)C)NC(=O)CNC(=O)[C@@H](NC(=O)[C@H](Cc1ccccc1)NC(=O)CNC(=O)CNC(=O)[C@@H](N)Cc1ccccc1)[C@@H](C)O)C(=O)N[C@@H](C)C(=O)N[C@@H](CC(N)=O)C(=O)N[C@@H](CCC(N)=O)C(N)=O` (stereo partly drawn) [listing 1 of 2 here], 7.12; for `CC(C)C[C@H](NC(=O)[C@H](CCCCN)NC(=O)[C@H](CCCNC(=N)N)NC(=O)C(C)(NC(=O)[C@H](CO)NC(=O)[C@H](CCCCN)NC(=O)[C@H](CCCNC(=N)N)NC(=O)[C@H](C)NC(=O)CNC(=O)[C@@H](NC(=O)[C@H](Cc1ccccc1)NC(=O)CNC(=O)CNC(=O)[C@@H](N)Cc1ccccc1)[C@@H](C)O)C(C)C)C(=O)N[C@@H](C)C(=O)N[C@@H](CC(N)=O)C(=O)N[C@@H](CCC(N)=O)C(N)=O` (stereo partly drawn) [listing 1 of 2 here], 7.83.
For `CC[C@](C)(NC(=O)CNC(=O)[C@@H](NC(=O)[C@H](Cc1ccccc1)NC(=O)CNC(=O)CNC(=O)[C@@H](N)Cc1ccccc1)[C@@H](C)O)C(=O)N[C@@H](CCCNC(=N)N)C(=O)N[C@@H](CCCCN)C(=O)N[C@@H](CO)C(=O)N[C@@H](C)C(=O)N[C@@H](CCCNC(=N)N)C(=O)N[C@@H](CCCCN)C(=O)N[C@@H](CC(C)C)C(=O)N[C@@H](C)C(=O)N[C@@H](CC(N)=O)C(=O)N[C@@H](CCC(N)=O)C(N)=O` [listing 2 of 2 here] the value was 7.83; for `CC(C)C[C@H](NC(=O)[C@H](CCCCN)NC(=O)[C@H](CCCNC(=N)N)NC(=O)[C@H](C)NC(=O)[C@H](CO)NC(=O)[C@H](CCCCN)NC(=O)[C@H](CCCNC(=N)N)NC(=O)C(C)(NC(=O)CNC(=O)[C@@H](NC(=O)[C@H](Cc1ccccc1)NC(=O)CNC(=O)CNC(=O)[C@@H](N)Cc1ccccc1)[C@@H](C)O)C(C)C)C(=O)N[C@@H](C)C(=O)N[C@@H](CC(N)=O)C(=O)N[C@@H](CCC(N)=O)C(N)=O` (stereo partly drawn) [listing 2 of 2 here], 7.56.
As for `CC(C)C[C@H](NC(=O)[C@H](CCCCN)NC(=O)[C@H](CCCNC(=N)N)NC(=O)C(C)(NC(=O)[C@H](CO)NC(=O)[C@H](CCCCN)NC(=O)[C@H](CCCNC(=N)N)NC(=O)[C@H](C)NC(=O)CNC(=O)[C@@H](NC(=O)[C@H](Cc1ccccc1)NC(=O)CNC(=O)CNC(=O)[C@@H](N)Cc1ccccc1)[C@@H](C)O)C(C)C)C(=O)N[C@@H](C)C(=O)N[C@@H](CC(N)=O)C(=O)N[C@@H](CCC(N)=O)C(N)=O` (stereo partly drawn) [listing 2 of 2 here], the figure is 7.71.
In the case of `CC(C)C[C@H](NC(=O)[C@H](CCCCN)NC(=O)[C@H](CCCNC(=N)N)NC(=O)[C@H](C)NC(=O)[C@H](CO)NC(=O)[C@H](CCCCN)NC(=O)[C@H](CCCNC(=N)N)NC(=O)C(C)(CC(C)C)NC(=O)CNC(=O)[C@@H](NC(=O)[C@H](Cc1ccccc1)NC(=O)CNC(=O)CNC(=O)[C@@H](N)Cc1ccccc1)[C@@H](C)O)C(=O)N[C@@H](C)C(=O)N[C@@H](CC(N)=O)C(=O)N[C@@H](CCC(N)=O)C(N)=O` (stereo partly drawn) [listing 2 of 2 here], the negative-log EC50 (pEC50) was 7.33.

Source of the values: ChEMBL document CHEMBL1148695, “Synthesis and biological activity of nociceptin/orphanin FQ analogues substituted in position 7 or 11 with Calpha,alpha-dialkylated amino acids” (Bioorg Med Chem, 2007).
